# Test results reported in PubChem BioAssay (NCI).
# “And” between values parts separate entries of the source, which are not always exact repeats. Equal entries are not always repeated.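 Protocol summary: plate cells (96-well), add compound at 5 concentrations, incubate 48 h, interpolate endpoints linearly. GI50: concentration for 50% inhibition of growth. TGI: concentration producing complete growth inhibition.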
# Columns and labels:
# Assay in all cases: growth of human tumour cells (NCI), 48 h
# [1] = test system: CCRF-CEM leukemia
# [2] = test system: HL-60(TB) leukemia
# [3] = test system: HS 578T breast
# [4] = test system: MALME-3M melanoma
# [5] = test system: MCF7 breast
# [6] = test system: NCI-H460 lung
# [7] = test system: NCI/ADR-RES ovarian
# [8] = test system: SF-539 CNS
# [9] = test system: SK-MEL-28 melanoma
# [10] = test system: SR leukemia
Compound,GI50 [1],TGI [1],GI50 [2],TGI [2],GI50 [3],TGI [3],GI50 [4],TGI [4],GI50 [5],TGI [5],GI50 [6],TGI [6],GI50 [7],TGI [7],GI50 [8],TGI [8],GI50 [9],TGI [9],GI50 [10],TGI [10]
CCOC(=O)c1ccccc1-c1c2ccc(=[N+](C)C)cc-2oc2cc(N(C)C)ccc12,0.42 µM,> 45.9 µM,0.229 µM,1.08 µM,0.548 µM,51.2 µM,0.333 µM,7.62 µM,0.101 µM,19.4 µM,0.23 µM,4.42 µM,27.2 µM,> 100 µM,0.379 µM,5.33 µM,0.687 µM,13 µM,0.298 µM,27.4 µM
O=[As]c1ccc(C(=O)c2ccc(Oc3ccccc3)cc2)cc1 (stereo not drawn),0.0191 µM,0.155 µM,0.119 µM,0.463 µM,0.129 µM,–,0.068 µM,0.271 µM,0.0181 µM,0.0903 µM,0.0439 µM,0.183 µM,0.0378 µM,0.143 µM,0.066 µM,0.218 µM,0.0416 µM,0.153 µM,< 0.0168 µM,0.0736 µM
CCCCCc1c(C)[nH]c(/C=C2\N=C(c3ccc[nH]3)C=C2OCc2ccccc2)c1C,0.0261 µM and 0.0162 µM,–,0.0623 µM,0.425 µM,0.0962 µM and 0.0277 µM,0.697 µM and 0.238 µM,0.116 µM and 0.0585 µM,0.494 µM and 0.209 µM,0.0395 µM and 0.0361 µM,0.859 µM and 1.06 µM,0.0423 µM and 0.031 µM,1.42 µM and 1.16 µM,0.255 µM and 0.0776 µM,1.46 µM and 0.761 µM,0.0668 µM and 0.0492 µM,1.08 µM and 0.263 µM,0.105 µM and 0.0459 µM,1.05 µM and 0.267 µM,0.0226 µM and 0.025 µM,–
COc1cc(/C=N\O)nc(-c2ccccn2)c1,–,> 100 µM,–,> 35.5 µM,–,> 100 µM,–,> 100 µM,–,> 100 µM,–,> 100 µM,–,> 49.6 µM,–,> 32.8 µM,–,> 100 µM,–,0.453 µM
C#CCN(Cc1nc2cc(C(F)(F)F)ccc2nc1-c1ccccc1)c1ccc(F)c(F)c1,24 µM,> 100 µM,39 µM,> 100 µM,45.5 µM,> 100 µM,–,–,26 µM,> 100 µM,26.5 µM,> 100 µM,56.1 µM,> 100 µM,29.2 µM,> 100 µM,> 100 µM,> 100 µM,–,–
C#Cc1cc2c(N)c(C(=O)c3cc(OC)c(OC)c(OC)c3)[nH]c2cc1OC,0.63 µM,> 100 µM,–,–,1.34 µM,> 100 µM,0.434 µM,> 100 µM,0.325 µM,> 100 µM,0.408 µM,> 100 µM,–,–,0.28 µM,1.6 µM,19.3 µM,> 100 µM,0.381 µM,> 100 µM
COc1ccc(/C=N/N=C(\[O-])c2ccncc2)cc1F.COc1ccc(/C=N\N=C(/[O-])c2ccncc2)cc1F.[Cu+2],22 µM,68.9 µM,–,–,18 µM,60 µM,25.9 µM,> 100 µM,17.9 µM,35 µM,13.6 µM,26.5 µM,13.4 µM,28.8 µM,17.8 µM,37.1 µM,37.9 µM,> 100 µM,16.8 µM,69.6 µM
Cc1ncc([N+](=O)[O-])n1CCNC(=O)CCCCCn1ccnc1[N+](=O)[O-],–,> 100 µM,–,> 100 µM,–,> 100 µM,–,> 100 µM,–,> 100 µM,–,> 100 µM,–,> 100 µM,–,> 100 µM,–,–,–,> 100 µM
COc1cc(-c2nn(-c3ccc(NC(=O)c4cc(Cl)cc(Cl)c4)cc3)cc2-c2ccncc2)ccc1Cl,5.77 µM,> 100 µM,5.82 µM,> 100 µM,3.29 µM,> 100 µM,–,–,> 100 µM,> 100 µM,8.48 µM,> 100 µM,> 100 µM,> 100 µM,4.73 µM,> 100 µM,> 100 µM,> 100 µM,> 100 µM,> 100 µM
Cc1ccc2c(c1)C(=O)c1c-2n(CCCN=[N+]=[N-])c(=O)c2cc([N+](=O)[O-])ccc12,31.7 µM,> 100 µM,22 µM,> 100 µM,> 100 µM,> 100 µM,–,–,50.1 µM,> 100 µM,21.1 µM,> 100 µM,94 µM,> 100 µM,> 100 µM,> 100 µM,> 100 µM,> 100 µM,8.21 µM,63.1 µM
NS(=O)(=O)c1ccc(NC(=O)Nc2ccccc2F)cc1,–,–,–,> 100 µM,–,> 100 µM,–,> 100 µM,–,> 100 µM,–,> 100 µM,–,> 100 µM,–,> 100 µM,–,> 100 µM,–,> 100 µM
Cc1nnc(-c2ccc(-c3nc4ccccc4o3)cc2)o1,–,–,56.8 µM,> 100 µM,95.1 µM,> 100 µM,–,–,26.7 µM,> 100 µM,25.9 µM,> 100 µM,> 100 µM,> 100 µM,> 100 µM,> 100 µM,> 100 µM,> 100 µM,25.8 µM,68 µM
COc1c(N2CCN(Cn3c(O)c(N=NC(=O)c4ccncc4)c4cc(F)ccc43)C(C)C2)c(F)cc2c(=O)c(C(=O)O)cn(C3CC3)c12 (stereo not drawn),–,–,> 50 µM,> 50 µM,0.294 µM,13.8 µM,–,–,12.4 µM,> 50 µM,12.4 µM,> 50 µM,29 µM,> 50 µM,14.6 µM,> 50 µM,> 50 µM,> 50 µM,16.3 µM,> 50 µM
C1CC[N-]CC1.CC(=N\O)/C(C)=N/O.CC(=N\O)/C(C)=N/O.[CH2-]CCN1CCOCC1.[Co+2],–,–,> 100 µM,> 100 µM,> 100 µM,> 100 µM,> 100 µM,> 100 µM,> 100 µM,> 100 µM,> 100 µM,> 100 µM,> 100 µM,> 100 µM,> 100 µM,> 100 µM,> 100 µM,> 100 µM,6.1 µM,> 100 µM
COc1cc([C@@H]2c3cc4c(cc3C(OC3O[C@@H]5COC(C)O[C@H]5[C@H](O)[C@H]3O)C3COC(=O)[C@@H]32)OCO4)cc(OC)c1O (stereo partly drawn),–,–,0.182 µM,1.53 µM,1.97 µM,> 31.8 µM,1.21 µM,14.1 µM,0.254 µM,> 50 µM,0.116 µM,6.88 µM,15.4 µM,> 50 µM,0.635 µM,3.78 µM,2.12 µM,> 34.6 µM,0.0276 µM,–
